Laboratory results taken from patent US7576094B2, “Spiro derivatives as lipoxygenase inhibitors” (Eli Lilly and Company, priority 2004, dated 2009).

Columns and labels:
[1] = target: T1, human recombinant 5-Lipoxygenase (Homo sapiens, UniProt P09917); experiment: 5-Lipoxygenase Enzyme Assay; type: biochemical; settings: 70 μM arachidonic acid, 10 minute incubation at room temperature, FOX reagent, absorbance at 620 nm; read-out: inhibition of 5-Lipoxygenase with an IC50
T1 sequence (P09917 1-674): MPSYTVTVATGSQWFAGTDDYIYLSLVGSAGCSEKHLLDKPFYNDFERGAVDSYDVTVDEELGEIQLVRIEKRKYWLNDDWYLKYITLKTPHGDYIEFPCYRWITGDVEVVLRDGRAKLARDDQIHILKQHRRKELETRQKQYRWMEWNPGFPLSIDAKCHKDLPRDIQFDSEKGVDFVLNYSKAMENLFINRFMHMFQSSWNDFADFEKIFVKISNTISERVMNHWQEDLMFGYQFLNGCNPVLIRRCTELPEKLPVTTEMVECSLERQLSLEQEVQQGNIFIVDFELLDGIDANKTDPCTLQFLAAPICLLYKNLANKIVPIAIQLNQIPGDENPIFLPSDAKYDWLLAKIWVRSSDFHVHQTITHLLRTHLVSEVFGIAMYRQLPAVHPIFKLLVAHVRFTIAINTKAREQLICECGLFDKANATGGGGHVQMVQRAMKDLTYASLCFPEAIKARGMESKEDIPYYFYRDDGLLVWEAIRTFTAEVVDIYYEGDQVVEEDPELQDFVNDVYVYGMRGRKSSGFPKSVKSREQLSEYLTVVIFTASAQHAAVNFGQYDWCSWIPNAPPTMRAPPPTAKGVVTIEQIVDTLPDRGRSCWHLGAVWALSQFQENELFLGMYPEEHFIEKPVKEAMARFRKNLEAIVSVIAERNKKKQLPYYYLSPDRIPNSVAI
Text: This procedure was used for measuring the enzymatic activity of human recombinant 5-Lipoxygenase using a colorimetric method based on the ferric oxidation of xylenol orange.
• 96 well flat bottom microfilter plates (VWR, Catalog # 62402-933 9295) • Lipoxygenase screening assay buffer (Cayman, Catalog # 760710) • Human recombinant 5-Lipoxygenase (Cayman, Catalog # 60402) • Arachidonic Acid (Sigma, Catalog # A3555) • Xylenol orange tetra sodium salt (Aldrich, Catalog # 227854) • Iron (II) sulfate heptahydrate (Sigma, Catalog # F7002) • Sulfuric acid (95-98%) [18 M] • Methanol Procedure
Human recombinant 5-Lipoxygenase (Cayman Cat # 60402) was used in this assay. The test compound and/or vehicle was added to 0.5 μL 5-Lipoxygenase in 50 mM Tris-HCl buffer, pH 7.4. The reaction was initiated by addition of 70 μM arachidonic acid in Tris-HCl buffer, pH 7.4, and terminated after a 10 minute incubation at room temperature by addition of FOX reagent (25 mM sulfuric acid, 100 μM xylenol orange, 100 μM iron (II) sulfate, methanol:water 9:1). The yellow color of acidified xylenol orange was converted to a blue color by the lipid hydroperoxide-mediated oxidation of Fe^2+ ions and the interaction of the resulting Fe^3+ ions with the dye. The complex was allowed to form during a 1 hour incubation at room temperature with shaking. Absorbance of the Fe^3+ complex was then measured at […] using a spectrophotometer.
Negative controls contained enzyme during the incubation step but substrate was not added until after the FOX reagent. Compounds were screened at 5 concentrations in triplicate starting at 10 μM

[2] = test system: LTB4 production in human whole blood; experiment: Inhibition of LTB4 Production in Blood; type: cell-based; settings: 1 h, 20 μM A23187, 60 minutes at 37° C., LTB4 in plasma by ELISA, read-out: protection against LTB4 at an EC50
Method: • Human whole blood (Na citrate) (Stanford Blood Center) • A23187, (Sigma, Cat# C-7522) • Leukotriene B4 EIA reagents (Cayman Chemical, Cat # 520111) • BWA4C (Sigma, Cat # B7559) Procedure Preparation of A23187:
A23187 was prepared as a 10 mM stock solution in DMSO (aliquots can be stored at −20° C.). On the day of the assay the stock solution was diluted as follows: 70 μL 10 mM stock added to 1.6 mL plasma to give a working concentration of 0.42 mM.
From a 30 mM stock solution in DMSO, test articles were diluted to a working concentration of 600 μM in PBS (i.e. 10 μL stock solution+490 μL PBS). This is the highest concentration (gives a final testing concentration of 30 μM). From this 600 μM solution test articles were serially diluted 1:3 in PBS to give a dose-response curve. 10 μL of each concentration of test article was then added to 4 wells of a 96-well plate (i.e. testing in quadruplicate). A positive control compound, BWA4C was used in every assay.
Human whole blood was added to the plates containing compounds (190 μL per well) and mixed well. The blood was incubated with compound at 37° C. for 15 minutes. Following this incubation, 10 μL of 0.42 mM A23187 was added to each well except the negative control wells to give a final calcium ionophore concentration of 20 μM. The plates were then incubated at 37° C. for 60 minutes. After the incubation period, plates were centrifuged for 15 min at 2000 g at 4° C. in sealed microplate buckets. Plasma was then removed for quantitation of LTB4 levels by ELISA.
LTB4 levels in the plasma were determined using a commercially available ELISA kit from Cayman Chemicals. The ELISA was run according to the manufacturer's instructions. The LTB4 levels in the vehicle control sample were then compared to those in which the test article had been added. From this a percent inhibition of LTB4 production by each concentration of test article was calculated and the IC50 was determined.

Compound	IC50 [1] [µM]	EC50 [2] [µM]
Cc1c(O)cc2c(c1C)N(c1ccc(O)cc1)C1(CC2)CC1 [1′-(4-hydroxyphenyl)-7′,8′-dimethyl-3′,4′-dihydro-1′H-spiro[cyclopropane-1,2′-quinolin]-6′-ol]	< 0.3	< 10
Cc1c(O)cc2c(c1C)N(c1ccc(N(C)C)nc1)CC1(CCC1)C2 [1′-(6-(dimethylamino)pyridin-3-yl)-7′,8′-dimethyl-2′,4′-dihydro-1′H-spiro[cyclobutane-1,3′-quinolin]-6′-ol]	< 0.3	< 10
CONCC1Cc2c(cc(C)c(O)c2C)OC12CCC2 (stereo not shown) [3-[(methoxyamino)methyl]-5,7-dimethyl-3,4-dihydrospiro-[chromene-2,1′-cyclobutan]-6-ol]		< 10
Cc1c(C)c2c(c(C)c1O)C(N(C)O)CC1(CCC1)O2 (stereo not shown) [4-[hydroxy(methyl)amino]-5,7,8-trimethyl-3,4-dihydrospiro[chromene-2,1′-cyclobutan]-6-ol]	< 0.3	< 10
Cc1cc2c(c(C)c1O)C(N(C)O)CC1(CCC1)O2 (stereo not shown) [4-[hydroxy(methyl)amino]-5,7-dimethyl-3,4-dihydrospiro[chromene-2,1′-cyclobutan]-6-ol]		< 10
Cc1c(C)c2c(c(C)c1O)C(O)C1(CCC1)CO2 (stereo not shown) [5,7,8-trimethylspiro[chroman-3,1′-cyclobutane]-4,6-diol]	< 0.3	< 10
CCc1cc2c(c(CC)c1O)CCC1(CCC1)O2 [5,7-diethyl-3,4-dihydrospiro[chromene-2,1′-cyclobutan]-6-ol]	< 0.3	< 10
Cc1cc2c(c(C)c1O)C(O)CC1(CCC1)O2 (stereo not shown) [5,7-dimethyl-3,4-dihydrospiro[chromene-2,1′-cyclobutane]-4,6-diol]		< 10
Cc1cc2c(c(C)c1O)C=C(c1nc(C)c(C)[nH]1)C1(CCC1)O2 [5,7-dimethyl-3-(-(4,5-dimethyl-1H-imidazol-2-yl)spiro[chromene-2,1′-cyclobutan]-6-ol]	< 0.3	< 10
Cc1cc2c(c(C)c1O)C(O)C1(CCC1)CO2 (stereo not shown) [5,7-dimethyl-4H-spiro[chromene-3,1′-cyclobutane]-4,6-diol]		< 10
CC(C)=CCC/C(C)=C/Cc1c(O)c(C)c(C)c2c1CCC1(CCC1)O2 [5-(3,7-dimethylocta-2,6-dienyl)-7,8-dimethylspiro[chroman-2,1′-cyclobutan]-6-ol]	< 0.3	< 10
CCc1c(O)c(C)cc2c1C(NOC)CC1(CCC1)O2 (stereo not shown) [5-ethyl-4-(methoxyamino)-7-methyl-3,4-dihydrospiro[chromene-2,1′-cyclobutan]-6-ol]	< 0.3	< 10
CCc1c(O)c(C(C)C)cc2c1C(O)CC1(CCC1)O2 (stereo not shown) [5-ethyl-7-isopropylspiro[chroman-2,1′-cyclobutane]-4,6-diol]		< 10
Cc1cc2c(c(C)c1O)CCC1(CCC1)N2Cc1ccc2ccccc2n1 [5′,7′-dimethyl-1′-(quinolin-2-ylmethyl)-3′,4′-dihydro-1′H-spiro[cyclobutane-1,2′-quinolin]-6′-ol]	< 0.3	< 10
CCc1cc2c(c(C)c1O)C(NOC)CC1(CCC1)O2 (stereo not shown) [7-ethyl-4-(methoxyamino)-5-methyl-3,4-dihydrospiro[chromene-2,1′-cyclobutan]-6-ol]	< 0.3	< 10
CONC1CC2(CCC2)Oc2cc(C(C)C)c(O)c(C)c21 (stereo not shown) [7-isopropyl-4-(methoxyamino)-5-methyl-3,4-dihydrospiro[chromene-2,1′-cyclobutan]-6-ol]	< 0.3	< 10
COC1CC2(CCC2)Oc2cc(C(C)C)c(O)c(C)c21 (stereo not shown) [7-isopropyl-4-methoxy-5-methylspiro[chroman-2,1′-cyclobutan]-6-ol]	< 0.3	< 10
Cc1c(O)c(C(C)C)cc2c1C(O)C1(CCC1)CO2 (stereo not shown) [7-isopropyl-5-methylspiro[chroman-3,1′-cyclobutane]-4,6-diol]		< 10
Cc1c(O)c(C)c2c(c1CO)OC1(CCC1)CC2 [8-(hydroxymethyl)-5,7-dimethyl-3,4-dihydrospiro[chromene-2,1′-cyclobutan]-6-ol]		< 10
